The compounds below were run against T1, P2X7 receptor (Homo sapiens, UniProt Q99572) (assay: High throughput P2X7 calcium mobilization assay (Example 4A)). Details: SH-SY5Y cells; 50% decrease in fluorescence response of cells exposed to 80 μM BzATP; Table I.
T1 construct: host or cells: SH-SY5Y
T1 sequence (Q99572 1-595): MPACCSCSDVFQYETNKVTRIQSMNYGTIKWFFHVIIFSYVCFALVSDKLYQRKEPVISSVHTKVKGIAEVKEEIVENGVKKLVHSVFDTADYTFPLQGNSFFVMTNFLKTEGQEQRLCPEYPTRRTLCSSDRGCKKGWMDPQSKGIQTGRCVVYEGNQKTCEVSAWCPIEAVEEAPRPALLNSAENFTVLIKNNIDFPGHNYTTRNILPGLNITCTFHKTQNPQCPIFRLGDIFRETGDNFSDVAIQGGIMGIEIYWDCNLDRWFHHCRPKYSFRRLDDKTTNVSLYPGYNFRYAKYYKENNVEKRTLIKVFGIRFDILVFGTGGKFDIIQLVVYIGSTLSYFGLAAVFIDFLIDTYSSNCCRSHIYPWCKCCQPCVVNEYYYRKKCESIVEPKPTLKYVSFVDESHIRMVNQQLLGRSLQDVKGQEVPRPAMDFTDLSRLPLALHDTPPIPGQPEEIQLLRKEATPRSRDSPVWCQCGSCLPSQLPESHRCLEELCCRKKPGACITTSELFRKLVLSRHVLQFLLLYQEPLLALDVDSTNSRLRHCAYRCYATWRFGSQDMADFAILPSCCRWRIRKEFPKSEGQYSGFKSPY
Format: cell-based
Description: A. High Throughput Assay of P2X7 Receptors
SH-SY5Y cells, ATCC Number CRL-2266, (American Type Culture Collection, Manassas, Va.) are cultured under DMEM/High medium supplemented with 10% FBS, and 10 mM HEPES (Invitrogen Corp., Carlsbad, Calif.) in 5% CO2 and at 37° C. One day prior to the experiment, cells are plated at a density of 100,000 cells/well in a 96 well black/clear TC plate (Corning® Costar®, Sigma-Aldrich Co., St. Louis, Mo.). At the beginning of the experiment, the culture medium is removed and cells are incubated with 50 μL of 2.3 μM Fluo-4 AM dye (Invitrogen Corp.) in the assay solution (5 mM KCl, 9.6 mM NaH2PO4.H2O, 25 mM HEPES, 280 mM sucrose, 5 mM glucose, and 0.5 mM CaCl2; pH is adjusted to 7.4 with NaOH) for an hour at 37° C. After one hour dye incubation, wells are rinsed once with 50 μL assay solution, and are then incubated for an hour at room temperature with 100 μL assay solution containing the test compound. The final concentration of test compound generally ranges from 1 to 2500 nM; for positive control cells, no test compound is added. After the one hour incubation, plates are transferred to a FLIPR^TETRA instrument (Molecular Devices, Sunnyvale, Calif.) for calcium mobilization analysis.
For determination of antagonist activity, 50 μL, of P2X7 agonist (2′(3)-O-(4-benzoyl-benzoyl)adenosine 5′-triphosephate (BzATP; Sigma-Aldrich) in the assay solution is transferred using the FLIPR into the plate, such that the final agonist concentration is 80 μM (about EC50). In negative control cells, 50 μL of assay solution without agonist is added at this stage. The peak fluorescence signal over a 2 minute period is then measured.
First, the average maximum relative fluorescent unit (RFU) response from the negative control wells (no agonist) is subtracted from the maximum response detected for each of the other experimental wells. Second, average maximum RFU response is calculated for the positive control wells (agonist wells).

| SMILES | IC50 |
| --- | --- |
| Cc1cnc(-n2cc(C(=O)NCC3(c4ccc(C(F)(F)F)cc4)CCCCC3)c(C)n2)nc1N [Compound 170, 1-(4-amino-5-methylpyrimidin-2-yl)-3-methyl-N-({1-[4-(trifluoromethyl)phenyl]cyclohexyl}methyl)-1H-pyrazole-4-carboxamide] | ≤ 2000 nM |
| O=C(NCC12CC3CC(CC(C3)C1)C2)c1cn(-c2ncc(F)cn2)nc1C(F)(F)F [Compound 118, N-(adamantan-1-ylmethyl)-1-(5-fluoropyrimidin-2-yl)-3-(trifluoromethyl)-1H-pyrazole-4-carboxamide] | ≤ 2000 nM |
| N[C@@H]1CCN(C2(CNC(=O)c3sc(-c4ncccn4)nc3C(F)(F)F)CCCCC2)C1 [Compound 162, N-({1-[(3R)-3-aminopyrrolidin-1-yl]cyclohexyl}methyl)-2-pyrimidin-2-yl-4-(trifluoromethyl)-1,3-thiazole-5-carboxamide] | ≤ 2000 nM |
| Cc1cnc(-n2cc(C(=O)NCC(CC(C)C)c3ccc(Cl)cc3)c(C)n2)nc1N (stereo not shown) [Compound 109, 1-(4-amino-5-methylpyrimidin-2-yl)-N-[2-(4-chlorophenyl)-4-methylpentyl]-3-methyl-1H-pyrazole-4-carboxamide] | ≤ 2000 nM |
| CCn1nc(C)c(Br)c1C(=O)NCC(CC(C)C)c1ccccc1 (stereo not shown) [Compound 49, 4-bromo-1-ethyl-3-methyl-N-(4-methyl-2-phenylpentyl)-1H-pyrazole-5-carboxamide] | ≤ 2000 nM |
| O=C(NCC12CC3CC(CC(C3)C1)C2)c1cn(-c2ncccn2)nc1C1CC1 [Compound 145, N-(adamantan-1-ylmethyl)-3-cyclopropyl-1-pyrimidin-2-yl-1H-pyrazole-4-carboxamide] | ≤ 2000 nM |
| Cc1nn(-c2ncccn2)cc1C(=O)NCC(CC(C)C)c1ccc(C(F)(F)F)cc1 (stereo not shown) [Compound 178, 3-methyl-N-{4-methyl-2-[4-(trifluoromethyl)phenyl]pentyl}-1-pyrimidin-2-yl-1H-pyrazole-4-carboxamide] | ≤ 2000 nM |
| Cc1nn(-c2nccnc2N)cc1C(=O)NCC12CC3CC(CC(C3)C1)C2 [Compound 58, N-(adamantan-1-ylmethyl)-1-(3-aminopyrazin-2-yl)-3-methyl-1H-pyrazole-4-carboxamide] | ≤ 2000 nM |
| Cc1csc(C(=O)NCC23CC4CC(CC(C4)C2)C3)c1Cl [Compound 87, N-(adamantan-1-ylmethyl)-3-chloro-4-methylthiophene-2-carboxamide] | ≤ 2000 nM |
| Nc1nccnc1-n1cc(C(=O)NCC23CC4CC(CC(C4)C2)C3)c(C(F)(F)F)n1 [Compound 147, N-(adamantan-1-ylmethyl)-1-(3-aminopyrazin-2-yl)-3-(trifluoromethyl)-1H-pyrazole-4-carboxamide] | ≤ 2000 nM |
| CC(C)CC(CNC(=O)c1sc(N2CC[C@@H](N(C)C)C2)nc1C(F)(F)F)c1ccc(C(F)(F)F)cc1 (stereo partly drawn) [Compound 163, 2-[(3R)-3-(dimethylamino)pyrrolidin-1-yl]-N-{4-methyl-2-[4-(trifluoromethyl)phenyl]pentyl}-4-(trifluoromethyl)-1,3-thiazole-5-carboxamide] | ≤ 2000 nM |
| Cc1nc(Sc2nccn2C)c(C(=O)NCC23CC4CC(CC(C4)C2)C3)s1 [Compound 69, N-(adamantan-1-ylmethyl)-2-methyl-4-[(1-methyl-1H-imidazol-2-yl)thio]-1,3-thiazole-5-carboxamide] | ≤ 2000 nM |
| CC(C)CC(CNC(=O)c1cn(-c2ncc(F)c(N)n2)nc1C(F)(F)F)c1cccnc1 (stereo not shown) [Compound 139, 1-(4-amino-5-fluoropyrimidin-2-yl)-N-(4-methyl-2-pyridin-3-ylpentyl)-3-(trifluoromethyl)-1H-pyrazole-4-carboxamide] | ≤ 2000 nM |

Second part, the compound after the results:

| IC50 | SMILES |
| --- | --- |
| ≤ 2000 nM | CN1CCN(C2(CNC(=O)c3sc(-c4ncccn4)nc3C(F)(F)F)CCCCC2)CC1 [Compound 312, N-{[1-(4-methylpiperazin-1-yl)cyclohexyl]methyl}-2-pyrimidin-2-yl-4-(trifluoromethyl)-1,3-thiazole-5-carboxamide] |
| ≤ 2000 nM | O=C(NCC1(N2CCNCC2)CCCCC1)c1sc(-c2ncccn2)nc1C(F)(F)F [Compound 313, N-[(1-piperazin-1-ylcyclohexyl)methyl]-2-pyrimidin-2-yl-4-(trifluoromethyl)-1,3-thiazole-5-carboxamide] |
| ≤ 2000 nM | CC(C)(C)OC(=O)NC1CCN(c2nc(C(F)(F)F)c(C(=O)NCC3(c4cccnc4)CCCCC3)s2)CC1 [Compound 301, tert-butyl {1-[5-{[(1-pyridin-3-ylcyclohexyl)methyl]carbamoyl}-4-(trifluoromethyl)-1,3-thiazol-2-yl]piperidin-4-yl}carbamate] |
| ≤ 2000 nM | Cc1nn(-c2cncc(N)n2)cc1C(=O)NCC1(c2ccc(C(F)(F)F)cc2)CCCCC1 [Compound 183, 1-(6-aminopyrazin-2-yl)-3-methyl-N-({1-[4-(trifluoromethyl)phenyl]cyclohexyl}methyl)-1H-pyrazole-4-carboxamide] |
| ≤ 2000 nM | O=C(NCC1(c2ccc(C(F)(F)F)cc2)CCCCC1)c1cn(-c2ncccn2)nc1C(F)(F)F [Compound 196, 1-pyrimidin-2-yl-3-(trifluoromethyl)-N-({1-[4-(trifluoromethyl)phenyl]cyclohexyl]methyl)-1H-pyrazole-4-carboxamide] |
| ≤ 2000 nM | CCc1nc(-c2ncccn2)sc1C(=O)NCC(CC(C)C)c1ccc(C)cc1 (stereo not shown) [Compound 275, 4-ethyl-N-[4-methyl-2-(4-methylphenyl)pentyl]-2-pyrimidin-2-yl-1,3-thiazole-5-carboxamide] |
| ≤ 2000 nM | CCc1nc(-c2ncccn2)sc1C(=O)NCC(CC(C)C)c1ccccc1 (stereo not shown) [Compound 258, 4-ethyl-N-(4-methyl-2-phenylpentyl)-2-pyrimidin-2-yl-1,3-thiazole-5-carboxamide] |
| ≤ 2000 nM | Cc1nc(-c2cccnc2)sc1C(=O)NCC1(c2cccnc2)CCCCC1 [Compound 311, 4-methyl-2-pyridin-3-yl-N-[(1-pyridin-3-ylcyclohexyl)methyl]-1,3-thiazole-5-carboxamide] |
| ≤ 2000 nM | O=C(NCC1(c2ccc(Cl)cc2)CCOCC1)c1cn(-c2ncccn2)nc1C(F)(F)F [Compound 197, N-{[4-(4-chlorophenyl)tetrahydro-2H-pyran-4-yl]methyl}-1-pyrimidin-2-yl-3-(trifluoromethyl)-1H-pyrazole-4-carboxamide] |
| ≤ 2000 nM | CCC(CNC(=O)c1cn(-c2ncccn2)nc1C(F)(F)F)c1ccccc1 (stereo not shown) [Compound 207, N-(2-phenylbutyl)-1-pyrimidin-2-yl-3-(trifluoromethyl)-1H-pyrazole-4-carboxamide] |

Same assay, conditions: SH-SY5Y cells; 50% decrease in fluorescence response of cells exposed to 80 μM BzATP; flag after the MS data in Examples 1-2

| IC50 | SMILES |
| --- | --- |
| ≤ 2000 nM | Cc1nc(-c2cccnc2)sc1C(=O)NCC1(c2ccc(Cl)c(F)c2)CCCCC1 [Compound 39, N-{[1-(4-chloro-3-fluorophenyl)cyclohexyl]methyl}-4-methyl-2-pyridin-3-yl-1-,3-thiazole-5-carboxamide] |
| ≤ 2000 nM | O=C(NCC(c1ccc(Cl)cc1)N1CCCCC1)c1sc(-c2ncccn2)nc1C(F)(F)F (stereo not shown) [Compound 23, N-[2-(4-chlorophenyl)-2-piperidin-1-ylethyl]-2-pyrimidin-2-yl-4-(trifluoromethyl)-1,3-thiazole-5-carboxamide] |
| ≤ 2000 nM | O=C(NCC1(c2ccc(C(F)(F)F)cc2)CCCCC1)c1cn(-c2ncccn2)nc1Cl [Compound 10, 3-Chloro-1-pyrimidin-2-yl-N-({1-[4-(trifluoromethyl)phenyl]cyclohexyl}methyl)-1H-pyrazole-4-carboxamide] |

| SMILES | IC50 |
| --- | --- |
| Cc1cnc(-n2cc(C(=O)NCC34CC5CC(CC(C5)C3)C4)c(C)n2)nc1C#N [1-(4-Cyano-5-methyl-pyrimidin-2-yl)-3-methyl-1H-pyrazole-4-carboxylic acid (adamantan-1-ylmethyl)-amide] | ≤ 2000 nM |
| Cc1nn(C)c(Cc2ccccc2)c1C(=O)NCC12CC3CC(CC(C3)C1)C2 [Compound 16, 5-Benzyl-1,3-dimethyl-1H-pyrazole-4-carboxylic acid (adamantan-1-ylmethyl)-amide] | ≤ 2000 nM |
